Values quoted from earlier work, collected in patent US5493006A, “Cyclic CRF analogs” (The Salk Institute for Biological Studies, priority 1993, dated 1996).
“Also recorded” adds a separate entry of the source. Ends that are not written are not given here.

Experiments:
[1] = injected peripherally; background statement
[2] = test system: secretion of ACTH and β-END-LI; conditions: in vitro and in vivo; background statement

Question: Which “lowering of blood pressure” value [1] does the source give for “oCRF: ovine corticotropin releasing factor, a 41-residue amidated peptide (SQEPPISLDLTFHLLREVLEMTKADQLAQQAHSNRKLLDIA-NH2; UniProt P01142 148-188, looked up)” here?
Answer: lowers blood pressure; also recorded: substantially lower blood pressure

Question: And the “stimulation of ACTH and β-endorphin-like activities (β-END-Li)” value [2]?
Answer: stimulates the secretion of ACTH and β-endorphin; also recorded: stimulate ACTH and β-endorphin-like activities (β-END-Li) in vitro and in vivo

Question: For “rCRF: rat CRF, a homologous, amidated hentetracontapeptide; same formula as human CRF (SEEPPISLDLTFHLLREVLEMARAEQLAQQAHSNRKLMEII-NH2; UniProt P01143 145-185, looked up)”, which “lowering of blood pressure” value [1] is on record?
Answer: substantially lower blood pressure

Question: What about the “stimulation of ACTH and β-endorphin-like activities (β-END-Li)” value [2] of the same substance?
Answer: stimulate ACTH and β-endorphin-like activities (β-END-Li) in vitro and in vivo
